The values below come from ChEMBL document CHEMBL1201862, “PubChem BioAssay data set” (2004).

Holding throughout (test): growth of human tumour cells (NCI), 48 h
Experiment [1] deals with NCI-H226.
Experiment [2] deals with SK-MEL-28.
Experiment [3] relates to NCI-H460.
Experiment [4] deals with ACHN.
Experiment [5] deals with CCRF-CEM.
The subject of experiment [6] is HOP-92.
The subject of experiment [7] is IGROV-1.
In experiment [8] the test system is OVCAR-8.
In experiment [9] the test system is HCT-116.
The subject of experiment [10] is KM12.
The subject of experiment [11] is SNB-19.
Experiment [12] relates to MDA-N.
Experiment [13] relates to A498.
For experiment [14], the system named is RXF 393.
Experiment [15] has as its system SF-268.
Experiment [16] has as its system A549.
Experiment [17] deals with Hs-578T.
In experiment [18] the test system is TK-10.
Experiment [19] deals with OVCAR-3.
Experiment [20] deals with HOP-62.

Values joined by “and” are separate entries in the source; they are usually repeats but may differ in a detail not shown here. Equal entries are not always repeated.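 Assay format: 96-well plates, 48-hour exposure. At the GI50, growth is halved.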 Active and inactive are the calls of the source. No stated cut-off is given here; in the data, active = GI50 up to about 1.1 µM and inactive = higher. Residues, ends and D or L forms follow the SMILES beside them. *: point of attachment. Boc = CC(C)(C)OC(=O)*; OBn = c1ccc(CO*)cc1

As to `CCSC1=C(C#N)C2(CCCCC2)C2=C(O)CC(C)(C)CC2=N1`, the GI50 in [1] is 53.6 µM (inactive); in experiment [2], 56.8 µM (inactive); in [3], < 0.01 µM (active); in experiment [4] it was 24.7 µM (inactive); in experiment [5], > 100 µM (inactive); in experiment [6] it was 11.4 µM (inactive). The GI50 is 26.5 µM (inactive) in experiment [7]; 36.5 µM (inactive) in [8]; > 100 µM (inactive) in experiment [9]; > 100 µM (inactive) in experiment [10]; 25.2 µM (inactive) in experiment [11]; > 100 µM (inactive) in experiment [12]. Besides, the GI50 in experiment [13] was 24.4 µM (inactive); in experiment [14], 52.7 µM (inactive); in [15], 45 µM (inactive); in experiment [16], 34.4 µM (inactive); in experiment [17] it was 52.1 µM (inactive); in experiment [18] it was 11.1 µM (inactive).
For `O=C1/C(=C/c2ccccc2)CN(C(=O)CCN2CCOCC2)C/C1=C\c1ccccc1`, the GI50 in experiment [1] is 5.89 µM (inactive); in experiment [2], 1.86 µM (inactive); in [3], 2.36 µM (inactive); in experiment [4], 3.49 µM (inactive); in [5], 1.38 µM (inactive); in experiment [6], 9.79 µM (inactive). Further, the GI50 in [7] is 6.04 µM (inactive); in experiment [8], 2.99 µM (inactive); in experiment [9], 0.778 µM (active); in experiment [10], 1.6 µM (inactive); in experiment [11], 5.45 µM (inactive); in [12], 2.06 µM (inactive). Further, the GI50 in [13] was 12.9 µM (inactive); in experiment [14], 4.38 µM (inactive); in [15], 2.87 µM (inactive); in experiment [16], 7.16 µM (inactive); in experiment [17] it was 2.6 µM (inactive); in experiment [18], 11.9 µM (inactive). The GI50 in experiment [19] is 3.91 µM (inactive); in experiment [20], 8.45 µM (inactive).
In the case of `CCCCCCCC1c2cc3nc(cc4[nH]c(cc5nc(cc([nH]2)[C@@]1(C)CC(=O)N(C)C)C(C)=C5CCC(=O)O)c(CCC(=O)O)c4C)C=C3C` (stereo partly drawn), the GI50 in [2] is 19.1 µM (inactive); in experiment [3], 20.8 µM (inactive); in [4], 18.5 µM (inactive); in experiment [5] it was 18.8 µM (inactive); in experiment [6], 21.2 µM (inactive); in [7], 21 µM (inactive). The GI50 in [9] is 17.1 µM (inactive); in experiment [10], 24.9 µM (inactive); in [11] it was 20.6 µM (inactive); in experiment [12] it was 31 µM (inactive); in experiment [13], 33.3 µM (inactive); in [14], 17.8 µM (inactive). Besides, the GI50 is 20.8 µM (inactive) in [15]; 50.2 µM (inactive) in experiment [16]; 18.7 µM (inactive) in [17]; 37.2 µM (inactive) in [18]; 17.5 µM (inactive) in experiment [19]; 20.5 µM (inactive) in experiment [20].
For `CN1CCN(c2ccc3[nH]c(-c4ccc5[nH]c(-c6ccc(N(C)CCCl)cc6)nc5c4)nc3c2)CC1`, the GI50 in [1] is 0.705 µM (active); in experiment [2] it was 0.32 µM (active); in [3], 0.222 µM (active); in experiment [4], 0.942 µM (active); in experiment [5], < 0.01 µM (active); in [6], 0.222 µM (active). The GI50 in experiment [7] was 0.0382 µM (active); in [8] it was 0.247 µM (active); in [9] it was 0.239 µM (active); in experiment [10], 0.811 µM (active); in [11], 0.0538 µM (active); in experiment [12] it was 0.226 µM (active). Also, the GI50 in experiment [13] is 2.56 µM (inactive); in experiment [14], 0.128 µM (active); in experiment [15], 0.0622 µM (active); in experiment [16], 0.286 µM (active); in experiment [17] it was 0.206 µM (active); in experiment [18], 2.87 µM (inactive). For the same compound, in [20], the GI50 is 0.156 µM (active).
For the compound `O=C(NCCCN(CCCCN(CCCNC(=O)C(F)(F)F)CCCc1ccccc1)CCCc1ccccc1)C(F)(F)F`, the GI50 was 10.4 µM (inactive) in experiment [1]; 1.64 µM (inactive) in [2]; 1.87 µM (inactive) in experiment [3]; 2 µM (inactive) in [4]; 4.63 µM (inactive) in [5]; 1.62 µM (inactive) in [6]. The GI50 in experiment [7] was 1.83 µM (inactive); in [8], 1.74 µM (inactive); in [9], 2.47 µM (inactive); in experiment [10] it was 1.95 µM (inactive); in experiment [11], 2 µM (inactive); in experiment [12] it was 1.65 µM (inactive). Moreover, the GI50 in [13] is 2.21 µM (inactive); in experiment [14], 1.3 µM (inactive); in experiment [15], 1.63 µM (inactive); in experiment [16], 1.82 µM (inactive); in [17] it was 2.02 µM (inactive); in experiment [18] it was 1.91 µM (inactive).
`O=c1ccc(-c2ccc(-n3ccnc3)cc2)nn1CCO`: the GI50 in experiment [2], in [3], in experiment [4], in [5], in experiment [6] and in experiment [7] was > 100 µM (inactive) in each case. Besides, the GI50 in [8], in [9], in [10], in experiment [11], in [12] and in experiment [13] was > 100 µM (inactive) in each case. Moreover, the GI50 in experiment [14], in [15], in experiment [16], in experiment [17], in experiment [18] and in experiment [19] was > 100 µM (inactive) each time. In experiment [20], the GI50 was > 100 µM (inactive).
In the case of `Brc1ccc(/N=N/N2CCCC2)cc1`, the GI50 in [1] was > 100 µM (inactive); in experiment [2], > 100 µM (inactive); in experiment [3] it was 48.2 µM (inactive); in [4], 71.6 µM (inactive); in [5], 42 µM (inactive); in [6] it was 27.2 µM (inactive). Besides, the GI50 in [7] is 34.8 µM (inactive); in experiment [9] it was 58.6 µM (inactive); in [10] it was 70.3 µM (inactive); in experiment [11] it was > 100 µM (inactive); in experiment [12], 64.9 µM (inactive); in experiment [13], 41.6 µM (inactive). Also, the GI50 is 81.7 µM (inactive) in [14]; 95.1 µM (inactive) in [15]; 74.1 µM (inactive) in experiment [16]; > 100 µM (inactive) in [17]; 82.4 µM (inactive) in experiment [18]; 81.5 µM (inactive) in experiment [19]. The GI50 in experiment [20] was > 100 µM (inactive).
For `CC(C)C(NC(=O)CNC(=O)C1CCCN1C(=O)C(NC(=O)OC(C)(C)C)C(C)C)C(=O)NCC(=O)OCc1ccccc1` (stereo not drawn) (Boc-VPGVG-OBn; configuration not given here), the GI50 in experiment [1], in experiment [2], in experiment [3], in experiment [4], in experiment [5] and in experiment [6] was > 100 µM (inactive) throughout. The GI50 in experiment [7] is > 100 µM (inactive) and 94.6 µM (inactive); in experiment [8], > 100 µM (inactive); in [9], > 100 µM (inactive); in experiment [10], > 100 µM (inactive); in [11] it was > 100 µM (inactive); in experiment [12], > 100 µM (inactive). For the same compound, the GI50 in [13] was > 100 µM (inactive); in [14] it was > 100 µM (inactive); in experiment [15], > 100 µM (inactive); in experiment [16] it was > 100 µM (inactive); in [17], 80.7 µM (inactive); in experiment [19], > 100 µM (inactive). In addition, in experiment [20], the GI50 is > 100 µM (inactive).
`Clc1ccc(COC(Cn2ccnc2)c2ccc(Cl)cc2Cl)cc1` (stereo not drawn) [ECONAZOLE]: the GI50 in experiment [2] is 17.2 µM (inactive); in experiment [3] it was 11.9 µM (inactive); in experiment [4], 15.5 µM (inactive); in experiment [5], 8.49 µM (inactive); in experiment [6], 10.6 µM (inactive); in [7], 11.9 µM (inactive). The GI50 in experiment [8] is 11.4 µM (inactive); in experiment [9], 8.71 µM (inactive); in [10], 14 µM (inactive); in experiment [11] it was 14.3 µM (inactive); in [12], 14.1 µM (inactive); in experiment [13] it was 14.2 µM (inactive). The GI50 in experiment [14] was 14.9 µM (inactive); in experiment [15], 14.3 µM (inactive); in [16] it was 11.2 µM (inactive); in [17] it was 17 µM (inactive); in experiment [18], 14 µM (inactive); in [19], 10.9 µM (inactive). In addition, the GI50 in [20] is 12.9 µM (inactive).
With `O=c1ccc2ccc(O)cc2o1` [UMBELLIFERONE], the GI50 in experiment [1], in experiment [2], in experiment [4], in [5], in experiment [6] and in experiment [7] was > 100 µM (inactive) in each case. The GI50 in [8], in experiment [9], in experiment [10], in [11], in experiment [12] and in [13] was > 100 µM (inactive) each time. Besides, the GI50 in [14], in experiment [15], in [16], in [17], in experiment [18] and in experiment [19] was > 100 µM (inactive) each time. Also, the GI50 in [20] was > 100 µM (inactive).
